Legend:
[1] = system: TNF-α; experiment: Intracerebral TNF-α production in rat middle cerebral artery occlusion-reperfusion model; format: in vivo, male Wistar rats; details: 10 mg/kg orally 30 min after occlusion; brain isolated 12 hr after occlusion; ELISA; FIG. 1
Protocol: (§1) The middle cerebral artery of male Wistar rats (Japan Laboratory animals Inc.) was obstructed with suture (silicon-coated nylon thread), and test compound A (10 mg/kg) dissolved in saline was intravenously administered in 30 min after occlusion, and middle cerebral artery was reperfused in 60 min after administration. In only the rats used for TNF-α measurement, test compound A was administered orally. The brain was isolated at 12 hr after the occlusion (see Koizumi, J. et al., Jpn. J. Stroke, 8, 1-8, 1986). The brain tissue was homogenized, the centrifuged supernatant was collected and cytokine and chemokine were measured by ELISA. Intracerebral TNF-α, IL-1β and IL-6 were measured using an Immunoassay Kit (BIOSOURCE) according to the manufactures' protocol. MCP-1 was measured using an MCP-1 Instant ELISA (Bener MedSystems) according to the manufactures' protocol.

[2] = system: IL-1β; experiment: Intracerebral IL-1β production in rat middle cerebral artery occlusion-reperfusion model; format: in vivo, male Wistar rats; details: 10 mg/kg intravenously 30 min after occlusion; brain isolated 12 hr after occlusion; ELISA; FIG. 2
Protocol: as §1

[3] = system: IL-6; experiment: Intracerebral IL-6 production in rat middle cerebral artery occlusion-reperfusion model; format: in vivo, male Wistar rats; details: 10 mg/kg intravenously 30 min after occlusion; brain isolated 12 hr after occlusion; ELISA; FIG. 3
Protocol: as §1

[4] = system: MCP-1; experiment: Intracerebral MCP-1 production in rat middle cerebral artery occlusion-reperfusion model; format: in vivo, male Wistar rats; details: 10 mg/kg intravenously 30 min after occlusion; brain isolated 12 hr after occlusion; ELISA; FIG. 4
Protocol: as §1

[5] = system: monkey middle cerebral artery permanent occlusion model; experiment: Brain injury volume and neurological deficit in monkey middle cerebral artery permanent occlusion model; format: in vivo, Macaca fascicularis; details: for spread of the cerebral infarction region (brain injury volume, MRI FLAIR): 5 mg/kg orally twice a day, FIG. 5
Protocol: In monkey middle cerebral artery permanent occlusion model, the brain injury volume was measured by MR^1 (FLAIR method) one day and seven days after occlusion. Test compound A (5 mg/kg) dissolved in 0.5% tragacanth was repeatedly administered orally twice a day for 14 days. As for neurological score, the neurological function was evaluated by scoring the consciousness, perception, motility and muscular commands.
The middle cerebral artery permanent occlusion was conducted according to the method of Furuichi et al. (Furuichi, Y et al., J. Cereb. Blood Flow Metab., 23, 1183-1194, 2003), which is specifically as follows. Macaca fascicularis fasted in advance for 12 hr or longer was anesthetized by intramuscular administration of ketamine hydrochloride (10 mg/kg), anesthetized by intravenous administration of pentobarbital sodium (25 mg/kg) and fixed on an operating table. About 5 mm holes were made near foramen ovale and orbital fissure with a dental drill, dura mater and arachnoid mater were incised, and the middle cerebral artery trunk near the internal carotid artery bifurcation area was exposed. The middle cerebral artery trunk near the internal carotid artery bifurcation area was obstructed by electric coagulation to form cerebral infarction.
Test compound A was orally administered within 1 hr and 6 hr after middle cerebral artery occlusion and within 30 min after feeding in the morning and evening (twice a day) from the next day for 14 days.

[6] = system: IL-10; experiment: IL-10 production in LPS-administered mouse; format: in vivo, male BALB/c mouse
Protocol: (§2) LPS (lipopolysaccharide, derived from E. coli 0111:B4, Sigma, 500 μg/kg) was intraperitoneally administered to male BALB/c mouse (Charles River Laboratories Japan). After 90 min after LPS administration, the blood was taken under anesthesia, and centrifuged to collect plasma. TNF-α was measured using an Immunoassay Kit (R&D Systems) and IL-10, MCP-1 and IL-6 were measured using an Immunoassay Kit (BIOSOURCE). Test compound A, the compound synthesized in Example 3 (test compound B) and the compound synthesized in Example 7 (test compound C) were dissolved in saline, and the mixture was orally administered at 10 mg/kg 30 min before LPS administration. As shown in the Tables, the effect of each test compound on respective […] cytokines was calculated as the ratio of each cytokine concentration in the blood of the group administered with each test compound to each cytokine concentration in the blood of the group free of administration of each test compound.

[7] = system: IL-6; experiment: IL-6 production in LPS-administered mouse; format: in vivo, male BALB/c mouse; details: for IL-6 production (%): 10 mg/kg orally 30 min before LPS 500 μg/kg i.p., plasma 90 min after LPS, ratio to group without test compound
Protocol: as §2

[8] = system: MCP-1; experiment: MCP-1 production in LPS-administered mouse; format: in vivo, male BALB/c mouse; details: for MCP-1 production (%): 10 mg/kg orally 30 min before LPS 500 μg/kg i.p., plasma 90 min after LPS, ratio to group without test compound
Protocol: as §2

[9] = system: rat middle cerebral artery occlusion-reperfusion model; experiment: Cerebral infarction volume in rat middle cerebral artery occlusion-reperfusion model; format: in vivo, male Wistar rats; details: 10 mg/kg intravenously 30 min after occlusion, reperfusion 90 min after occlusion, brain isolated 24 hr later, TTC stain; FIG. 7
Protocol: The middle cerebral artery of male Wistar rats (Japan Laboratory Animals Inc.) was obstructed with suture (silicon-coated nylon thread), and saline (Vehicle, n=7), test compound A (10 mg/kg, n=6) dissolved in saline, test compound B ([…], n=7) dissolved in saline, and test compound C (10 mg/kg, n=7) dissolved in saline were each intravenously administered in 30 min after occlusion and the artery was reperfused in 90 min after occlusion. The brain was isolated 24 hr later. A 2 mm brain strip was prepared, and the strip was stained with PBS (pH 7.4, 37° C.) containing 1% 2,3,5-triphenyltetrazolium chloride (TTC, Wako Pure Chemical Industries, Ltd.). The cerebral infarction area was measured by image analysis and the cerebral infarction volume was calculated.

[10] = Evaluation of intracerebral transitivity in rat; format: in vivo, SD(IGS) rats; details: for Kp value (ratio of plasma concentration and intracerebral concentration): 30 mg/kg orally
Protocol: The test compound A dissolved in 0.5% aqueous HPMC solution was orally administered at 30 mg/kg, and test compound B and test compound C dissolved in 0.5% aqueous HPMC solution were each orally administered at 3 mg/kg to SD(IGS) rats (Charles River Laboratories Japan). At 1 hr and 4 hr after the administration of the test compound, blood samples were collected, and the brain (cerebral•cerebellum) was isolated. The plasma concentration and intracerebral concentration of each test compound were measured, and the ratio (Kp value) thereof was calculated, based on which the intracerebral transitivity was evaluated.

[11] = 10 mg/kg orally 30 min before LPS

SMILES: CC(=O)NC1(c2ccc(CN3CCN(c4ncccn4)CC3)cc2)CC1.Cl [test compound A, N-(1-(4-((4-(pyrimidin-2-yl)piperazin-1-yl)methyl)phenyl)cyclopropyl)acetamide•hydrochloride]
- intracerebral TNF-α concentration increased by transient cerebral ischemia [1]: suppressed
- intracerebral IL-1β concentration increased by transient cerebral ischemia [2]: suppressed
- intracerebral IL-6 concentration increased by transient cerebral ischemia [3]: suppressed
- intracerebral MCP-1 concentration increased by transient cerebral ischemia [4]: suppressed
- neurological deficit (neurological function score) ([5]; 5 mg/kg orally twice a day for 14 days, FIG. 6): neurological deficit-ameliorating effect
- spread of the cerebral infarction region (brain injury volume, MRI FLAIR) ([5]; 1 day after occlusion): suppressive action
- spread of the cerebral infarction region (brain injury volume, MRI FLAIR) ([5]; 7 days after occlusion): suppressive action
- IL-10 in LPS model mouse (in words) [6, 11]: increased
- IL-10 production (%) ([6]; Table 1, 10 mg/kg orally 30 min before LPS 500 μg/kg i.p., plasma 90 min after LPS, ratio to group without test compound): 397.1%
- IL-6 production in LPS model mouse (in words) [7, 11]: suppressed
- IL-6 production (%) ([7]; Table 2): 74.4%
- IL-6 production (%) ([7]; Table 3): 78.4%
- MCP-1 production in LPS model mouse (in words) [8, 11]: suppressed
- MCP-1 production (%) ([8]; Table 2): 61.7%
- MCP-1 production (%) ([8]; Table 3): 72.2%
- suppression of cerebral infarction volume [9]: 42.5%
- Kp value (ratio of plasma concentration and intracerebral concentration) ([10]; 1 hr after administration): 0.5
- Kp value (ratio of plasma concentration and intracerebral concentration) ([10]; 4 hr after administration): 0.5
- intracerebral transitivity (in words) ([10]; orally, test compound A 30 mg/kg, test compounds B and C 3 mg/kg): intracerebrally transferred
